# Patent US20240002374A1, “5-MEMBERED HETEROARYLAMINOSULFONAMIDES FOR TREATING CONDITIONS MEDIATED BY DEFICIENT CFTR ACTIVITY” (Genzyme Corporation, priority 2019, published 2024)
# Target: T1, CFTR (primary human bronchial epithelial cells from a ΔF508 homozygous CF donor, CF-HBE cells) (Homo sapiens, UniProt P13569, DEL508-508)
# T1 construct: Primary human bronchial epithelial cells from a ΔF508 homozygous CF donor; host or cells: primary human bronchial epithelial cells (CF-HBE) from a ΔF508 homozygous CF donor
# Assay: TECC24 recording of CFTR-mediated transepithelial chloride transport (TECC24 AUC fold over DMSO @ 3 μM)
# Type: cell-based
# Conditions: 3 uM test agent; CF-HBE cells (ΔF508 homozygous) incubated 48 h; ratio of test agent AUC of forskolin-stimulated IEQ to vehicle (DMSO) AUC
# Procedure: Example 510: TECC24 AUC Fold Over DMSO @ 3 μM
# The effects of a test agent on CFTR-mediated transepithelial chloride transport was measured using TECC24 recording analysis. Test agents were solubilized in DMSO. Solubilized test agents were mixed with incubation medium containing DMEM/F12, Ultroser G (2%; Crescent Chemical, catalog #67042), Hyclone Fetal Clone H (2%; GE Healthcare, catalog #SH30066.02), bovine brain extract (0.25%; Lonza, catalog #CC-4098), insulin (2.5 μg/mL), IL-13 (10 ng/mL), hydrocortisone (20 nM), transferrin (2.5 μg/mL), triiodothyronine (500 nM), ethanolamine (250 nM), epinephrine (1.5 μM), phosphoethanolamine (250 nM), and retinoic acid (10 nM). Primary human bronchial epithelial cells from a ΔF508 homozygous CF donor (CF-HBE cells; from University of North Carolina Cystic Fibrosis Tissue Procurement Center), grown on Transwell HTS 24-well cell culture inserts (Costar, catalog #3378), were exposed to test agents or controls dissolved in incubation medium. The CF-HBE cells were cultured at 36.5° C. for 48 h before TECC24 recordings were performed in the presence or absence of test agent, a positive control or vehicle (DMSO).
# Following incubation, the transwell cell culture inserts containing the test agent or control-treated CF-HBE cells were loaded onto a TECC24 apparatus (TECC v7 or MTECC v2; EP Design) to record the transepithelial voltage (VT) and resistance (TEER) using 4 AgCl electrodes per well configured in current-clamp mode. The apical and basolateral bath solutions both contained (in mM) 140 NaCl, 5 KCl, 2 CaCl2), 1 MgCl2, 10 Hepes, and 10 glucose (adjusted to pH 7.4 with NaOH) […]. To inhibit basal Na+ absorption, the ENaC inhibitor benzamil (10 μM) was added to the bath. Then, the adenylate cyclase activator, forskolin (10 μM), was added to the bath to activate CFTR. The forskolin-stimulated Cl− transport was halted by addition of bumetanide (20 μM), an inhibitor of the basolateral chloride co-transporter NKCC1, to the bath to confirm that the detected signal was chloride dependent. VT and TEER recordings were digitally acquired at routine intervals using TECC or MTECC software (EP Design). VT and TEER were transformed into equivalent transepithelial Cl− current (IEQ), and the Area Under the Curve (AUC) of the IEQ time course between forskolin and bumetanide addition is generated using Excel (Microsoft). Efficacy is expressed as the ratio of the test agent AUC divided by vehicle AUC. EC50s based on AUC are generated using the non-linear regression log(agonist) vs. response function in Prism software (GraphPad) with Hill Slope fixed=1.
# If a test agent increased the AUC of the forskolin-stimulated IEQ relative to vehicle in CF-HBE cells, and this increase was inhibited by bumetanide, then the test agent was considered a CFTR corrector.
# T1 sequence (P13569 with tags, fused parts or gaps DEL508-508): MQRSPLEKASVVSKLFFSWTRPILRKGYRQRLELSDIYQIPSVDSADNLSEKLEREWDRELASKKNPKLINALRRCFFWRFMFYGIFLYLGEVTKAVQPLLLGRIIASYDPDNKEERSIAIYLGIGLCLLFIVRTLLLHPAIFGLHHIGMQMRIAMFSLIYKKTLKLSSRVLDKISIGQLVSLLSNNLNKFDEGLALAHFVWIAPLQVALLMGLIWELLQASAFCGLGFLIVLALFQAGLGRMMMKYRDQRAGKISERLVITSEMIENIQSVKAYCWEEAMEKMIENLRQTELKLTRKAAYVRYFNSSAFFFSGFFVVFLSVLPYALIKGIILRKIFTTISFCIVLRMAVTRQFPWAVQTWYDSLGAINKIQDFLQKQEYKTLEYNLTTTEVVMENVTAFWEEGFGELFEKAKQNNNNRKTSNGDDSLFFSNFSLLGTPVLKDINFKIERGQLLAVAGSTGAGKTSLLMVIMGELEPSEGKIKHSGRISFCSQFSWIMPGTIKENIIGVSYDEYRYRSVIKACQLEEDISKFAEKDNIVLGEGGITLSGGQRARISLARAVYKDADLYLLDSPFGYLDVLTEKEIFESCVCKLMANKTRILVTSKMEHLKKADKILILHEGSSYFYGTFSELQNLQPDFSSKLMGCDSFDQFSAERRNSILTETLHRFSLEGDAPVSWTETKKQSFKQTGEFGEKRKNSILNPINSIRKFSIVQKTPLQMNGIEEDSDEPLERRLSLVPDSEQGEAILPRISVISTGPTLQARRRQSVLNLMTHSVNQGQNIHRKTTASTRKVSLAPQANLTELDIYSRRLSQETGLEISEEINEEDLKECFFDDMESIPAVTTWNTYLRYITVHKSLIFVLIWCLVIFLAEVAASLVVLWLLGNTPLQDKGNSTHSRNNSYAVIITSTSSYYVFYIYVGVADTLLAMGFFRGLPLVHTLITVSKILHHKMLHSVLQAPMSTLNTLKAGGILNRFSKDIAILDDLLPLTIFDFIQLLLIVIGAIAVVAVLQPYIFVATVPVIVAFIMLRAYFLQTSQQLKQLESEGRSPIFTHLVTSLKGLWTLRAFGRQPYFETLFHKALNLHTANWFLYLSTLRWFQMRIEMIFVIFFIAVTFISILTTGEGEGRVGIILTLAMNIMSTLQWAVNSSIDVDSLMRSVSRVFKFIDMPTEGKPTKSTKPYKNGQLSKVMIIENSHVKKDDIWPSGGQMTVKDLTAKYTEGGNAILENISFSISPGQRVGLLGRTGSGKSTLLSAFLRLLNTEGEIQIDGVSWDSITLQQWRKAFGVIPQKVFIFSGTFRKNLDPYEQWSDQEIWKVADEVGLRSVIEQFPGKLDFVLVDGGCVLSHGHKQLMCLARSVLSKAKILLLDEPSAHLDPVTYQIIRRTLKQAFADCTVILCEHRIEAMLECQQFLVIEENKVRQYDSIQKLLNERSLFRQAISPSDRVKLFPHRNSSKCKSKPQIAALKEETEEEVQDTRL
row,SMILES,TECC AUC vs. DMSO @ 3 uM
1,"Cc1cccc(C(F)(F)F)c1-c1nc(NS(=O)(=O)c2ccnc(N)c2)sc1-c1cc(F)cc(OCCC(C)(C)C)c1 [Example 15, 2-Amino-N-(5-(3-(3,3-dimethylbutoxy)-5-fluorophenyl)-4-(2-methyl-6-(trifluoromethyl)phenyl)thiazol-2-yl)pyridine-4-sulfonamide]",A (“A” refers to AUC > 5)
2,"Cc1cccc(C)c1-c1nc(NS(=O)(=O)c2ccccc2)sc1-c1cccc(OCCC(C)(C)C)c1 [Example 16, N-(5-(3-(3,3-Dimethylbutoxy)phenyl)-4-(2,6-dimethylphenyl)thiazol-2-yl)benzenesulfonamide]",A (“A” refers to AUC > 5)
3,"Cc1cccc(C)c1-c1nc(NS(=O)(=O)c2ccccc2)sc1-c1cc(F)cc(OCCC(C)(C)C)c1 [Example 17, N-(5-(3-(3,3-Dimethylbutoxy)-5-fluorophenyl)-4-(2,6-dimethylphenyl)thiazol-2-yl)benzenesulfonamide]",B (“B” refers to AUC 2-5)
4,"CC(C)c1ccccc1-c1nc(NS(=O)(=O)c2cccc(N)c2)sc1-c1cccc(OCCC(C)(C)C)c1 [Example 18, 3-Amino-N-(5-(3-(3,3-dimethylbutoxy)phenyl)-4-(2-isopropylphenyl)thiazol-2-yl)benzenesulfonamide]",A (“A” refers to AUC > 5)
5,"CC(C)(C)CCOc1cccc(-c2sc(NS(=O)(=O)c3cccc(NC(=O)C4CC4)c3)nc2-c2ccccc2C(F)(F)F)c1 [Example 19, N-(3-(N-(5-(3-(3,3-Dimethylbutoxy)phenyl)-4-(2-(trifluoromethyl)phenyl)thiazol-2-yl)sulfamoyl)phenyl)cyclopropanecarboxamide]",A (“A” refers to AUC > 5)
6,"CC(C)(C)CCOc1cccc(-c2sc(NS(=O)(=O)c3cccc(NC(=O)C4(F)CC4)c3)nc2-c2ccccc2C(F)(F)F)c1 [Example 20, N-(3-(N-(5-(3-(3,3-Dimethylbutoxy)phenyl)-4-(2-(trifluoromethyl)phenyl)thiazol-2-yl)sulfamoyl)phenyl)-1-fluorocyclopropane-1-carboxamide]",A (“A” refers to AUC > 5)
7,"CNc1cccc(S(=O)(=O)Nc2nc(-c3ccccc3C(C)C)c(-c3cccc(OCCC(C)(C)C)c3)s2)c1 [Example 21, N-(5-(3-(3,3-Dimethylbutoxy)phenyl)-4-(2-isopropylphenyl)thiazol-2-yl)-3-(methylamino)benzenesulfonamide]",A (“A” refers to AUC > 5)
8,"Cc1cccc(C)c1-c1nc(NS(=O)(=O)c2cccc(C(F)F)c2)sc1-c1cccc(OCCC(C)(C)C)c1 [Example 22, 3-(Difluoromethyl)-N-(5-(3-(3,3-dimethylbutoxy)phenyl)-4-(2,6-dimethylphenyl)thiazol-2-yl)benzenesulfonamide]",A (“A” refers to AUC > 5)
9,"CC(C)c1ccccc1-c1nc(NS(=O)(=O)c2cccc(N)c2F)sc1-c1cccc(OCC(F)(F)C(C)(C)C)c1 [Example 23, 3-Amino-N-(5-(3-(2,2-difluoro-3,3-dimethylbutoxy)phenyl)-4-(2-isopropylphenyl)thiazol-2-yl)-2-fluorobenzenesulfonamide]",A (“A” refers to AUC > 5)
10,"CC(C)c1ccccc1-c1nc(NS(=O)(=O)c2cccc(NC3CC(C)(O)C3)c2)sc1-c1ccc(F)c(OCC(F)(F)C(C)(C)C)c1 (stereo not shown) [Example 24, N-(5-(3-(2,2-Difluoro-3,3-dimethylbutoxy)-4-fluorophenyl)-4-(2-isopropylphenyl)thiazol-2-yl)-3-((3-hydroxy-3-methylcyclobutyl)amino)benzenesulfonamide]",A (“A” refers to AUC > 5)
11,"Cc1cccc(C)c1-c1nc(NS(=O)(=O)c2cccc(N)c2F)sc1-c1cc(F)cc(OCCC(C)(C)C)c1 [Example 25, 3-Amino-N-(5-(3-(3,3-dimethylbutoxy)-5-fluorophenyl)-4-(2,6-dimethylphenyl)thiazol-2-yl)-2-fluorobenzenesulfonamide]",A (“A” refers to AUC > 5)
12,"CC(C)c1ccccc1-c1nc(NS(=O)(=O)c2cc(N)ccc2F)sc1-c1ccc(F)c(OCC(F)(F)C(C)(C)C)c1 [Example 26, 5-Amino-N-(5-(3-(2,2-difluoro-3,3-dimethylbutoxy)-4-fluorophenyl)-4-(2-isopropylphenyl)thiazol-2-yl)-2-fluorobenzenesulfonamide]",A (“A” refers to AUC > 5)
13,"CNc1cccc(S(=O)(=O)Nc2nc(-c3c(C)cccc3C)c(-c3cccc(OCCC(C)(C)C)c3)s2)c1 [Example 27, N-(5-(3-(3,3-Dimethylbutoxy)phenyl)-4-(2,6-dimethylphenyl)thiazol-2-yl)-3-(methylamino)benzenesulfonamide]",A (“A” refers to AUC > 5)
14,"Cc1cccc(C)c1-c1nc(NS(=O)(=O)c2cccc(-n3cccn3)c2)sc1-c1cccc(OC2CCC(C)(C)C2)c1 (stereo not shown) [Example 28, N-(5-(3-((3,3-Dimethylcyclopentyl)oxy)phenyl)-4-(2,6-dimethylphenyl)thiazol-2-yl)-3-(1H-pyrazol-1-yl)benzenesulfonamide]",A (“A” refers to AUC > 5)
15,"Cc1cccc(C)c1-c1nc(NS(=O)(=O)c2cccc(-c3ccn[nH]3)c2)sc1-c1cccc(OC2CCC(C)(C)C2)c1 (stereo not shown) [Example 29, N-(5-(3-((3,3-Dimethylcyclopentyl)oxy)phenyl)-4-(2,6-dimethylphenyl)thiazol-2-yl)-3-(1H-pyrazol-5-yl)benzenesulfonamide]",A (“A” refers to AUC > 5)
16,"CC(C)c1ccccc1-c1nc(NS(=O)(=O)c2cccc(N)n2)sc1-c1cccc(OCCC(C)(C)C)c1 [Example 30, 6-Amino-N-(5-(3-(3,3-Dimethylbutoxy)phenyl)-4-(2-isopropylphenyl)thiazol-2-yl)pyridine-2-sulfonamide]",A (“A” refers to AUC > 5)
17,"Cc1cccc(C)c1-c1nc(NS(=O)(=O)c2cccc(N)n2)sc1-c1cc(F)cc(OCCC(C)(C)C)c1 [Example 31, 6-Amino-N-(5-(3-(3,3-dimethylbutoxy)-5-fluorophenyl)-4-(2,6-dimethylphenyl)thiazol-2-yl)pyridine-2-sulfonamide]",A (“A” refers to AUC > 5)
18,"Cc1cccc(C)c1-c1nc(NS(=O)(=O)c2ccnc(N)c2)sc1-c1cc(F)cc(OCCC(C)(C)C)c1 [Example 32, 2-Amino-N-(5-(3-(3,3-dimethylbutoxy)-5-fluorophenyl)-4-(2,6-dimethylphenyl)thiazol-2-yl)pyridine-4-sulfonamide]",A (“A” refers to AUC > 5)
19,"CC(C)c1ccccc1-c1nc(NS(=O)(=O)c2ccnc(N)c2)sc1-c1cc(F)cc(OCCC(C)(C)C)c1 [Example 33, 2-Amino-N-(5-(3-(3,3-dimethylbutoxy)-5-fluorophenyl)-4-(2-isopropylphenyl)thiazol-2-yl)pyridine-4-sulfonamide]",A (“A” refers to AUC > 5)
20,"Cc1cccc(OC(C)C)c1-c1nc(NS(=O)(=O)c2ccnc(N)c2)sc1-c1cc(F)cc(OCCC(C)(C)C)c1 [Example 34, 2-Amino-N-(5-(3-(3,3-dimethylbutoxy)-5-fluorophenyl)-4-(2-isopropoxy-6-methylphenyl)thiazol-2-yl)pyridine-4-sulfonamide]",A (“A” refers to AUC > 5)
21,"Cc1cccc(C)c1-c1nc(NS(=O)(=O)c2cccnc2N)sc1-c1cc(F)cc(OCCC(C)(C)C)c1 [Example 35, 2-Amino-N-(5-(3-(3,3-dimethylbutoxy)-5-fluorophenyl)-4-(2,6-dimethylphenyl)thiazol-2-yl)pyridine-3-sulfonamide]",A (“A” refers to AUC > 5)
22,"CC(C)c1ccccc1-c1nc(NS(=O)(=O)c2cccc(N[C@H](C(=O)O)C(C)(C)C)n2)sc1-c1cccc(OCCC(C)(C)C)c1 [Example 36, (S)-2-((6-(N-(5-(3-(3,3-Dimethylbutoxy)phenyl)-4-(2-isopropylphenyl)thiazol-2-yl)sulfamoyl)pyridin-2-yl)amino)-3,3-dimethylbutanoic Acid]",A (“A” refers to AUC > 5)
